Reference: patent publication US7015228B2, “4-amino-2-(2-pyridyl)pyrimidines as microbicidal active substances” (Ciba Specialty Chemicals Corporation, priority 2001, dated 2006)
Converted amounts (≈) assume the structure as drawn.

What was measured:
[1] = system: Escherichia coli NCTC 8196; assay: Minimum inhibitory concentration (MIC) in microtitre plates; type: cell-based; settings: Table 7, 48 hours at 37° C., MIC = ≦20% growth compared to control
Method: (§1) Determination of the Minimum Inhibitory Concentration (MIC Value) in Microtitre Plates
(§2) Casein-soybean flour-peptone broth for preparation of pre-cultures of test bacteria and yeast.
(§3) Mycological slant agar for the pre-culture of moulds
(§4) Examples of Test Organisms:
(§5) The test substances are pre-dissolved in dimethyl sulfoxide (DMSO) and tested in a dilution series of 1:2.
(§6) Bacteria and yeast are cultured overnight in CASO broth, the mould is cultured overnight on mycological slant agar, and washed off using 10 ml of 0.85% sodium chloride solution (+0.1% Triton X-100).
(§7) All the test organisms are adjusted to an organism count of 1–5×10^6 CFU/ml using 0.85% sodium chloride solution.
(§8) The test substances are pre-pipetted into microtitre plates in amounts of 8 μl per well.
(§9) Pre-diluted organism suspensions are diluted 1:100 in CASO broth (bacteria and yeast) or Sabouraud 2% glucose broth (mould) and are added in amounts of 192 μl per well to the test substances.
(§10) The test batches are incubated for 48 hours at 37° C. (bacteria and yeast) or for 5 days at 28° C. (mould).
(§11) After incubation, the growth is determined on the basis of the turbidity of the test batches (optical density) at 620 nm in a microplate reader.
(§12) The minimum inhibitory concentration (MIC value) is the concentration of substance at which there is found (compared to the growth of the control) an appreciable inhibition of growth (≦20% growth) of the test organisms.
(§13) One microtitre plate is used for each test organism and substance concentration. All the substances are tested in duplicate.

[2] = system: Staphylococcus hominis DMS 20328; assay: as above; type: cell-based; settings: Table 7, 48 hours at 37° C., MIC = ≦20% growth compared to control
Method: as §1, §2, §3, §4, §5, §6, §7, §8, §9, §10, §11, §12, §13

SMILES | Minimum inhibitory concentration (MIC) E. coli [1] [µg/mL] | Minimum inhibitory concentration (MIC) S. hominis [2] [µg/mL] | MIC ([1]; Escherichia coli, NCTC8196, read-out: Minimum inhibitory concentration (MIC) E. coli) [µg/mL] | MIC ([2]; Staphylococcus hominis, DMS20328, read-out: Minimum inhibitory concentration (MIC) S. hominis) [µg/mL]
CCc1c(C)nc(-c2ccccn2)nc1NCCCCCCCN [compound 4] | >120 | >120 | – | –
COCCc1cc(NCCCCCCCN)nc(-c2ccccn2)n1 [compound 76] | >80 | 40 (≈ 116 µM) | – | –
Cc1cc(NCCCCCCCCN)nc(-c2ccccn2)n1 [compound 17] | >80 | >80 | – | –
Cc1nc(-c2ccccn2)nc(NC2CCCCC2)c1C(C)C [compound 74] | >120 | 60 (≈ 193 µM) | – | –
CCCCCCCCCCCCCCCCNc1cc(CCOC)nc(-c2ccccn2)n1 [compound 85] | 120 (≈ 264 µM) | 120 (≈ 264 µM) | – | –
CCCCCCCNc1cc(C)nc(-c2ccccn2)n1 [compound 20] | 120 (≈ 422 µM) | 7.5 (≈ 26.4 µM) | – | –
CCCCCCCCCNc1cc(CCOC)nc(-c2ccccn2)n1 [compound 82] | 120 (≈ 337 µM) | 7.5 (≈ 21 µM) | – | –
CCCCCCCCCCCCCCCCNc1nc(-c2ccccn2)nc(C)c1CC [compound 13] | >120 | 120 (≈ 274 µM) | – | –
CCCCCCCCCCCCCCCCNc1nc(-c2ccccn2)nc(C)c1C(C)C [compound 73] | >120 | 120 (≈ 265 µM) | – | –
Cc1cc(NCCCCCCCN)nc(-c2ccccn2)n1 [compound 16] | >120 | >120 | – | –
CC(C)c1cc(NCc2ccccc2)nc(-c2ccccn2)n1 [compound 97] | 120 (≈ 394 µM) | 15 (≈ 49.3 µM) | – | –
CCc1c(C)nc(-c2ccccn2)nc1NCc1ccccc1 [compound 88] | 120 (≈ 394 µM) | 120 (≈ 394 µM) | – | –
CCCCCCCCCCCCNc1nc(-c2ccccn2)nc(C)c1C(C)C [compound 72] | >120 | 15 (≈ 37.8 µM) | – | –
Cc1nc(-c2ccccn2)nc(NCCc2ccccc2)c1C(C)C [compound 75] | >120 | 30 (≈ 90.2 µM) | – | –
CCc1c(C)nc(-c2ccccn2)nc1NCCCCCCCCN [compound 5] | >120 | >120 | – | –
NCCCCCCCNc1cc(C(F)(F)F)nc(-c2ccccn2)n1 [compound 28] | >80 | >80 | – | –
CC(C)c1cc(NC2CCCCC2)nc(-c2ccccn2)n1 [compound 50] | >120 | 15 (≈ 50.6 µM) | – | –
CCCCCCCCCCCCCCCCNc1cc(C)nc(-c2ccccn2)n1 [compound 25] | >120 | 15 (≈ 36.5 µM) | – | –

SMILES | Minimum inhibitory concentration (MIC) E. coli [1] [µg/mL] | Minimum inhibitory concentration (MIC) S. hominis [2] [µg/mL] | MIC ([1]; Escherichia coli, NCTC8196, read-out: Minimum inhibitory concentration (MIC) E. coli) [µg/mL] | MIC ([2]; Staphylococcus hominis, DMS20328, read-out: Minimum inhibitory concentration (MIC) S. hominis) [µg/mL]
CC(C)c1cc(NCCCCCCCN)nc(-c2ccccn2)n1 [compound 40] | >120 | 120 (≈ 366 µM) | – | –
CCCCCCCCCCCCCCCNc1cc(C(F)(F)F)nc(-c2ccccn2)n1 [compound 96] | 120 (≈ 266 µM) | 120 (≈ 266 µM) | – | –
Cc1cc(NCc2ccccc2)nc(-c2ccccn2)n1 [compound 91] | >120 | 30 (≈ 109 µM) | – | –
Cc1nc(-c2ccccn2)nc(NCCCCCCCN)c1C(C)C [compound 64] | >120 | 30 (≈ 87.8 µM) | – | –
CCCCCCCNc1cc(CCOC)nc(-c2ccccn2)n1 [compound 80] | >120 | 30 (≈ 91.3 µM) | – | –
FC(F)(F)c1cc(NCCc2ccccc2)nc(-c2ccccn2)n1 [compound 39] | >120 | 30 (≈ 87.1 µM) | – | –
COCCc1cc(NC2CCCCC2)nc(-c2ccccn2)n1 [compound 86] | >120 | 120 (≈ 384 µM) | – | –
COCCc1cc(NCCc2ccccc2)nc(-c2ccccn2)n1 [compound 87] | 120 (≈ 359 µM) | 30 (≈ 89.7 µM) | – | –
CC(C)c1cc(NCCCCCCCCN)nc(-c2ccccn2)n1 [compound 41] | >120 | 120 (≈ 351 µM) | – | –
Cc1nc(-c2ccccn2)nc(NCCCCCCCCCCCCN)c1C(C)C [compound 67] | 20 (≈ 48.6 µM) | 5 (≈ 12.1 µM) | – | –
FC(F)(F)c1cc(NCc2ccccc2)nc(-c2ccccn2)n1 [compound 94] | >120 | >120 | – | –
FC(F)(F)c1cc(NC2CCCCC2)nc(-c2ccccn2)n1 [compound 38] | >120 | 60 (≈ 186 µM) | – | –
CC(C)(C)c1cc(NCCCCCCCCN)nc(-c2ccccn2)n1 [compound 53] | >80 | 80 (≈ 225 µM) | – | –
CCCCCCCCCCCNc1cc(C(F)(F)F)nc(-c2ccccn2)n1 [compound 95] | >120 | 120 (≈ 304 µM) | – | –
CC(C)c1cc(NCCc2ccccc2)nc(-c2ccccn2)n1 [compound 51] | >120 | 30 (≈ 94.2 µM) | – | –
CCCCCCCCCCCCNc1cc(C(F)(F)F)nc(-c2ccccn2)n1 [compound 36] | – | – | > 120 | 60 (≈ 147 µM)
CCCCCCCCCCCCCCCCNc1cc(C(C)C)nc(-c2ccccn2)n1 [compound 49] | >120 | >120 | – | –
CC(C)(C)c1cc(NCCCCCCCCCCCCN)nc(-c2ccccn2)n1 [compound 55] | 60 (≈ 146 µM) | 7.5 (≈ 18.2 µM) | – | –
